Measured values as given in ChEMBL document CHEMBL1144609, “N-Hydroxythiosemicarbazones: synthesis and in vitro antitubercular activity” (Bioorg Med Chem Lett, 2007).
≈ marks a conversion by molar mass, not a printed value.

Tests used:
[1] = test system: Mycobacterium tuberculosis; test: Antimycobacterial activity against Mycobacterium tuberculosis H37Rv by agar dilution method; format: functional
[2] = test system: Vero; test: Cytotoxicity against Vero cells after 72 hrs by MTT assay; format: cell-based; conditions: Chlorocebus sabaeus
[3] = Selectivity index, ratio of IC50 for Vero cells to MIC for Mycobacterium tuberculosis H37Rv; format: functional

Row | Compound | MIC [1] | IC50 [2] | Selectivity index [3]
1 | CN(C)c1ccc(/C=N/NC(=S)NO)cc1 | 52.5 µM (≈ 12.5 µg/mL) |  | 
2 | COc1ccc(/C=N/NC(=S)NO)cc1 | 14.9 µM (≈ 3.37 µg/mL) |  | 
3 | Cc1ccc(/C=N/NC(=S)NO)cc1 | 13 µM (≈ 2.71 µg/mL) |  | 
4 | ONC(=S)N/N=C/c1ccc(Cl)cc1 | 13 µM (≈ 2.99 µg/mL) |  | 
5 | ONC(=S)N/N=C/c1ccccc1O | 29.6 µM (≈ 6.25 µg/mL) |  | 
6 | O=[N+]([O-])c1ccc(/C=N/NC(=S)NO)cc1 | 6.49 µM (≈ 1.56 µg/mL) | > 260 µM | 
7 | C/C(=N\NC(=S)NO)c1ccccc1 | 14.9 µM (≈ 3.13 µg/mL) |  | 
8 | C/C(=N\NC(=S)NO)c1ccc(C)cc1 | 6.98 µM (≈ 1.56 µg/mL) | > 280 µM | 
9 | C/C(=N\NC(=S)NO)c1ccc(Cl)cc1 | 3.2 µM (≈ 0.78 µg/mL) | > 256 µM | 
10 | C/C(=N\NC(=S)NO)c1ccc([N+](=O)[O-])cc1 | 0.78 µM (≈ 0.198 µg/mL) | > 246 µM | 
11 | ONC(=S)N/N=C(\c1ccccc1)c1ccc(Br)cc1 | 0.28 µM (≈ 0.0981 µg/mL) | > 178 µM | >625
12 | O=C1Nc2ccc(F)cc2/C1=N/NC(=S)NO | 24.6 µM (≈ 6.25 µg/mL) |  | 
13 | COc1cc(/C=N/NC(=S)NO)ccc1O | 27.2 µM (≈ 6.57 µg/mL) |  | 
14 | ONC(=S)N/N=C/c1ccccc1 | 64 µM (≈ 12.5 µg/mL) |  | 
15 | ONC(=S)N/N=C/c1ccc(O)cc1 | 29.6 µM (≈ 6.25 µg/mL) |  | 
16 | O=[N+]([O-])c1ccccc1/C=N/NC(=S)NO | 6.49 µM (≈ 1.56 µg/mL) | > 260 µM | 
17 | C/C(=N\NC(=S)NO)c1ccccc1O | 13.9 µM (≈ 3.13 µg/mL) |  | 
18 | O=C1Nc2ccccc2/C1=N/NC(=S)NO | 64 µM (≈ 15.1 µg/mL) |  | 
19 | CC[C@@H](CO)NCCN[C@@H](CC)CO [ETHAMBUTOL] | 15.3 µM (≈ 3.13 µg/mL) | > 306 µM | 
20 | NNC(=O)c1ccncc1 [ISONIAZID] | 0.72 µM (≈ 0.0987 µg/mL) | > 456 µM | 
21 | CO[C@H]1/C=C/O[C@@]2(C)Oc3c(C)c(O)c4c(O)c(c(/C=N/N5CCN(C)CC5)c(O)c4c3C2=O)NC(=O)/C(C)=C\C=C\[C@H](C)[C@H](O)[C@@H](C)[C@@H](O)[C@@H](C)[C@H](OC(C)=O)[C@@H]1C [RIFAMPIN] | 0.24 µM (≈ 0.198 µg/mL) | > 75.9 µM | 
